One data set deals with rat NOS1. Nature of the data set: Anaerobic reduction of paraquat by NOS1 at 600 nm; Hanes plot. It is filed as biochemical. As for the experimental part: Anaerobic reduction of paraquat by NOS1 to paraquat.^+ was followed at 600 nm spectrophotometrically and converted to a concentration using the extinction coefficient E600 =13,700 M^-1 cm^-1. Reactions (1 ml) were performed in the NADPH oxidation buffer described above in the absence of L-arginine, dithiothreitol and tetrahydrobiopterin. Reactions were initiated by the addition of 2 U of NOS1 and followed for 3 minutes at 37° C.

Data set [1] is described as follows: Working Example XIII: accident victim with hypotension. The data set is classed as in vivo, human. As to conditions: IV 0.4 milligrams per kilogram over 2 hours. As for the experimental part: A accident victim presents with a blood pressure of 80/60 and a hematocrit of 20. They are bleeding profusely from an abdominal would and doctors are having difficulty maintaining their blood pressure with fluid resuscitation. They are begun on an intravenous drip of paraquat of 0.4 milligrams per kilogram over 2 hours.

In the next data set the test system is solid tumor. Briefly: Working Example VII: solid tumor patient. It is filed as in vivo, human. The following applies: IV infusion 4 milligram per kilogram, seven cycles, after 5,6 MEXAA; two weeks. As for the experimental part:
A person is given the anti-tumor agent 5,6 dimethylxanthemone-4-acetic acid (5,6 MEXAA) to treat a solid tumor identified by biopsy on the left lower extremity, and lung. […] At this time, the patient is treated with intravenous infusion of paraquat (4 milligram per kilogram) for seven cycles.

Data set [2] concerns Rabbit aortic rings. Nature of the data set: Exogenous NO-induced relaxation of aortic rings. The following applies: 2 mM paraquat, phenylephrine 1 μM; FIG. 3(b). As for the experimental part: (§1) New Zealand white male rabbits weighting 3-4 kg were anaesthetized with phenobarbital (30 mg/kg/iv). The descending thoracic aorta was isolated and placed in Krebs-Henseleit buffer (pH 7.4) and stored at 4° C. until used. The vessels were cut into 5 mm rings and submerged in 25 ml double jacketed tissue baths containing Krebs-Henseleit buffer bubbled with 95% oxygen and 5% carbon dioxide at 37° C. Rings were hung on stainless steel stirrups connected to calibrated force transducers. Rings were equilibrated with 2 g resting tension for 1 hour before use and contracted with phenylephrine (1 μM). Rings were incubated with paraquat for 15 minutes before acetylcholine-induced or exogenous relaxations were performed.
In another case, rabbit aortic rings were constricted with 1 μM phenylephrine (initial contraction) and relaxed with increasing concentration of NO in the presence or absence of 2 mM paraquat. The results are shown in FIG. 3(b) where relaxations are expressed as a percent of the initial phenylephrine-induced contraction.

Data set [3] concerns RAW-264.7 monocyte macrophage cells. Nature of the data set: NO production, nitrite plus nitrate, in macrophages. As to conditions: 0.1 mM paraquat, 24 hours. It is filed as cell-based. As to the method:
(§2) The RAW-264.7 monocyte macrophage cells line (TIB-71) was purchased from the American Type Culture Collection (Manassas, Va.). The cells were grown in T-75 flasks containing DMEM (Gibco-BRL, Grand Island, N.Y.) supplemented with 1 mM pyruvate, 4.5 g/L glucose and […] fetal bovine serum Macrophages were plated at 2.0×10^4 cells/well in 24-well plates and experiments were performed when cells were near confluence. Macrophages were immunostimulated with 50 ng/ml lipopolysaccharide (LPS) from E. coli serotype 0111:B4 (Signia, St. Louis, Mo.) and 50 U/ml recombinant mouse interferon gamma (INF-γ, R&D Systems, Minneapolis,Minn.). Macrophages were used between passages 2-8. Cell cultures were kept in a 37° C. incubator with air and 5% carbon dioxide.
(§3) NOS2 was induced in RAW cells using a mixture of interferon-γ and lipopolysaccharide (LPS) referred to as "cytomix." Unstimulated (basal) and activated (cytomix) macrophages were treated with 0.1 mM paraquat or not treated with paraquat and cytotoxicity and NO production were assessed at 24 hours.
NO production, assessed by measuring the accumulation of the NO metabolites nitrite and nitrate 24 hours after cytomix treatment, is shown in FIG. 4(b). […] NOS2 expression was not affected (data not shown).
(§4) To further exclude the role of peroxynitrite, macrophages were treated with increasing concentrations of the NO-donor, DETA NONOate in the presence of 0.1 mM paraquat. Macrophage cytotoxicity and NO release were assessed 24 hours after treatments. Cell injury was assessed by measuring LDH release.

The test system of data set [4] is Rabbit aortic rings. Briefly: Acetylcholine-induced (EDRF) relaxation of aortic rings. As for the experimental part: Rabbit aortic rings were treated with increasing concentrations of paraquat or L-NAME (2 mM) prior to initiating a constriction response with 1 μM phenylephrine (initial contraction).
as §1
Endothelial-derived relaxing factor (EDRF) responses were initiated by addition of acetylcholine.

Data set [5] has as its system RAW-264.7 monocyte macrophage cells. Briefly: LDH release from macrophages (cytotoxicity). The data set is classed as cell-based. As for the experimental part:
as §2, §3
Cell injury was assessed by measuring LDH release.
as §4
(In general: LDH in the medium is a marker of cell lysis.)

The test system of another data set is aconitase. Briefly: Aconitase/fumarase activity ratio in macrophage lysates. It is filed as cell-based. The following applies: 24 hours, FIG. 5. As to the method:
Aconitase activity (a sensitive marker of O2^- and peroxynitrite formation) and fumarase activity were measured as described in Patel, M., et al., Nuron 16, 345-355 (1996). Specifically aconitase activity was determined spectrophotometrically by monitoring the formation of cis-aconitate from isocitrate at 240 nm. Fumarase activity was measured by monitoring the increased absorbence at 240 mn following the formation of fumarate from L-malate. Aconitase activity was expressed as a ratio of aconitase activity to flimarase activity in order to correct for differences in cell numbers.
Aconitase activity was measured in cell lysates 24 hours after cytomix, DETA nonoate and paraquat treatments. Macrophages were grown in 24-well plates and treated with cytomix or 250 μM DETA NONOate. Control, activated (cytomix) and DETA NONOate groups were treated with paraquat (0.1 mM) or not treated with paraquat. The results are shown in FIG. 5 where an asterisk indicates a significant difference from control group, p<0.05.

For the molecule `C[n+]1ccc(-c2cc[n+](C)cc2)cc1` [paraquat], in the data set with rat NOS1 (FIG. 1(d)), the “paraquat reductase activity (Hanes plot)” value was “increased paraquat reduction with increasing paraquat concentration”. In the data set on rat NOS1 (anaerobic, without L-arginine, 37° C., 3 minutes, FIG. 1(c)), the “reduction of paraquat to its cation radical (600 nm)” value is “direct and progressive reduction of paraquat to its cation radical”. For the same molecule, the patient condition result in data set [1] is recorded as “the patient is stabilized”. Also, the blood pressure in data set [1] (from 80/60) is 100/70. Moreover, the tumor regression entry in the data set on solid tumor was “tumor regresses and is not longer detectable”. Besides, the “effect on exogenously added NO-induced relaxation” value with Rabbit aortic rings [2] is listed as “did not inhibit exogenously added NO-induced relaxation”. Moreover, in data set [3] (FIG. 4(d)), the “formation of NO metabolites from DETA NONOate” value was “does not alter the formation of NO metabolites from DETA NONOate”. In data set [3] (cytomix-activated), the “percent decrease in nitrite and nitrate compared with percent increase in cell death” value is “percent decrease in nitrite and nitrate was greater than percent increase in cell death”. Also, in data set [3] (cytomix-activated, FIG. 4(b)), the “NO production (nitrite and nitrate)” value is on record as “significantly attenuated NO production”. Besides, in the data set with Rabbit aortic rings [4] (conclusion of Background Example 3), the “EDRF responses / vessel constriction, conclusion” value is “blocks EDRF responses and thereby constricts blood vessels”. The “inhibition of EDRF-induced relaxation, in words” value with Rabbit aortic rings [4] (increasing paraquat, 15 min before acetylcholine, phenylephrine 1 μM, FIG. 3(a)) is reported as “dose-dependent inhibition of EDRF-induced relaxation”. The “cell injury (LDH release), single treatment” value in data set [5] (0.1 mM paraquat or cytomix alone, 24 hours, FIG. 4(a)) is recorded as “very little cell injury”. Also, the “paraquat-induced cytotoxicity in activated macrophages” value in data set [5] (0.1 mM paraquat plus cytomix, 24 hours, FIG. 4(a)) is “potentiated in cytokine-activated macrophages”. In addition, the “effect of paraquat on DETA NONOate-induced cell injury” value in data set [5] (0.1 mM paraquat, higher DETA NONOate concentrations, 24 hours, FIG. 4(c)) is recorded as “DETA NONOate-induced cell injury was attenuated by paraquat”. Also, the “cell killing / amelioration of toxicity, conclusion” value in data set [5] (conclusion of Background Example 4) was “kills cells containing NOS but not cells that do not”. Moreover, the results for the aconitase activity entry in the data set on aconitase (paraquat 0.1 mM plus 250 μM DETA NONOate) and in the data set on aconitase (paraquat 0.1 mM plus cytomix) were “not seen in the paraquat/DETA NONOate group” and “a decrease in aconitase activity is seen”, respectively.

These data come from patent US6231894A, “Treatments based on discovery that nitric oxide synthase is a paraquat diaphorase” (Duke University, priority 1999, dated 2001).
